Data on 10 compounds can be found in US20090214464A1, “COMPOUNDS FOR FLAVIVIRIDAE TREATMENT” (priority 2004, published 2009).

The test system of experiment [1] is HCV subgenomic replicon in MH-14 cells. Nature of the experiment: immunoblot analysis of HCV NS5A and NS5B proteins in MH-14 HCV replicon cells. To be noted: 7 days. Format: cell-based. The method, then:
(§1) Cell culture: Huh-7 and MH-14 cells, HCV replicon cells, are cultured in Dulbecco's modified Eagle's medium (DMEM) with 10% fetal bovine serum (FBS). PH5CH8 cells are cultured in a 1:1 mixture of DMEM and F12 medium supplemented with 100 ng/ml of epidermal growth factor, 10 μ/ml of insulin, 0.36 μg/ml of hydrocortisone, 5 μg/ml of transferrin, 5 μg/ml of linoleic acid, 20 ng/ml of selenium, 4 μg/ml of glucagon, 10 ng/ml of prolactin, 10 μg/ml of gentamicin, 200 μg/ml of kanamycin, and 2% FBS.
Immunoblot analysis: Immunoblot analysis is performed as described by K. Watashi et al., Virology 2001, 286, 391-402. The primary antibodies used in this experiment are anti-NS5A, anti-NS5B, and anti-β-actin (Sigma) antibodies.
The effect of various cyclosporins of the invention on the replication of the HCV genome using MH-14 cells, in which the HCV subgenomic replicon as shown in FIG. 1A is autonomously replicated.
A general note: In western blotting, separated proteins are transferred to a membrane and probed.

Experiment [2] has the same test system. Kind of experiment: northern blot analysis of replicon RNA in MH-14 cells. Type of experiment: cell-based. To be noted: 1 μg/ml, 7 days. The method, then:
as §1
Northern blot analysis: Northern blot analysis is performed as described by H. Kishine et al., Biochem. Biophys. Res. Commun., 2002, 47, 119-125. The probe complementary to the NS5B sequence used in this experiment is described by H. Kishine, supra.
(§2) Replicon RNA is analyzed in MH-14 cells treated with or without a cyclosporin of the invention or IFNα for 7 days by northern blot analysis.
Background: In antiviral work, replicon cells carry a viral genome segment that copies itself.

Experiment [3] shares this test system. The conditions noted are these: 7th day. The procedure:
(§3) Real time RT-PCR analysis: The 5′-UTR of HCV genome RNA is quantified using the ABI PRISM 7700 sequence detector (AppliedBiosystems) as described by T. Takeuchi et al., Gastroenterology, 1999, 116, 636-642. The forward and reverse primers used in this experiment are 5′-[…]-3′ and 5′-[…]-3′, respectively. The fluorogenic probe is 5′-[…]-3′. As an internal control, ribosomal RNA is also quantified using TaqMan Ribosomal RNA Control Reagents (Applied Biosystems).
as §2

In experiment [4] the test system is HCV in PH5CH8 cells (non-neoplastic hepatocyte cell line). Kind of experiment: in vitro HCV infection experiment in PH5CH8 cells. Format: cell-based. To be noted: PH5CH8 cells treated continuously; untreated cells increase about 10-fold. The procedure:
as §1, §3

Experiment [5] concerns the target human recombinant cyclophilin (Homo sapiens, UniProt P62937). Nature of the experiment: competitive ELISA test of cyclophilin binding (Binding Ratio). The conditions noted are these: relative to cyclosporin A in a simultaneous test.
Text: A cyclosporin is considered as binding to cyclophilin if it binds to human recombinant cyclophilin at least one fifth as well as does cyclosporin A in the competitive ELISA test described by Quesniaux in Eur. J. Immunol. […] The results are expressed as the Binding Ratio (BR), which is the log to the base 10 of the ratio of the IC50 of the test compound and the IC50 in a simultaneous test of cyclosporin A itself.
The next experiment concerns HCV. To be noted: ribavirin alone; cited from earlier work.
Experiment [6] deals with Balb/c mice spleen cells stimulated with irradiated CBA spleen cells. Nature of the experiment: Mixed Lymphocyte Reaction (MLR). Format: cell-based. The source says: Cyclosporins which bind strongly to cyclophilin but are not immunosuppressive have been identified. A cyclosporin is considered to be non-immunosuppressive when it has an activity in the Mixed Lymphocyte Reaction (MLR) of no more than 5%, preferably no more than 2%, that of cyclosporin A. The Mixed Lymphocyte Reaction is described by T. Meo in “Immunological Methods”, L. Lefkovits and B. Peris, Eds., Academic Press, N.Y. pp. 227-239 (1979). Spleen cells (0.5×10^6) from Balb/c mice (female, 8-10 weeks) are co-incubated for 5 days with 0.5×10^6 irradiated (2000 rads) or mitomycin C treated spleen cells from CBA mice (female, 8-10 weeks). The irradiated allogeneic cells induce a proliferative response in the Balb c spleen cells which can be measured by labeled precursor incorporation into the DNA. […] The IC50 found for the test compound in the MLR is compared with that found for cyclosporin A in a parallel experiment. In addition, non-immunosuppressive cyclosporins lack the capacity of inhibiting CN and the downstream NF-AT pathway.
IR=immunosuppressive Ratio, expressed as a percentage of the activity relative to Cyclosporin A.

human recombinant cyclophilin, sequence (P62937 whole entry): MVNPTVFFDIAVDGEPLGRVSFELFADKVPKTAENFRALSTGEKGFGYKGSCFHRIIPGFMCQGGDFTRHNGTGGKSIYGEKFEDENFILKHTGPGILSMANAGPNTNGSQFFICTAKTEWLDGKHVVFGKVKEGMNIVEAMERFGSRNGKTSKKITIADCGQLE

Turning to [Melle]^4-Ciclosporin, the “amount of HCV NS5A and NS5B proteins by immunoblot analysis” value in experiment [1] (1 μg/ml) was “undetectable”. For the same compound, in experiment [2], the “amount of replicon RNA by northern blot” value is given as “undetectable level”. Further, in experiment [3], the “level of HCV RNA relative to the original” value is listed as “about 1/400”. In experiment [4], the “increase of HCV RNA genome titer, 5th day versus 1st day post-inoculation” value was “not observed”. Besides, in experiment [5], the “BR (Binding Ratio: log to the base 10 of the ratio of the IC50 of the test compound and the IC50 of cyclosporin A)” value is reported as −0.2.
Take [MeVa]^4-Ciclosporin: in experiment [5], the “BR (Binding Ratio: log to the base 10 of the ratio of the IC50 of the test compound and the IC50 of cyclosporin A)” value came to 0.1.
On to `NC(=O)c1ncn([C@@H]2O[C@H](CO)[C@@H](O)[C@H]2O)n1` [Ribavirin, 1-β-D-ribofuranosyl-1-1,2,4-triazole-3-caroxamide], for which, in the experiment on HCV, the “patients with serum amino transferase levels reduced to normal” value is recorded as 40 % of patients and the “serum levels of HCV-RNA” value was “does not lower”.
On to [Ethyl-Val]^4-Ciclosporin, for which the “BR (Binding Ratio: log to the base 10 of the ratio of the IC50 of the test compound and the IC50 of cyclosporin A)” value in experiment [5] worked out at 0.
On to IFNα, for which, in experiment [1] (100 U/ml, positive control), the “amount of HCV NS5A and NS5B proteins by immunoblot analysis” value was “undetectable”. Besides, in experiment [4], the “increase of HCV RNA genome titer, 5th day versus 1st day post-inoculation” value is on record as “not observed”.
As to [MeVal]^5-Ciclosporin, the “IR (immunosuppressive Ratio, percentage of the activity relative to Cyclosporin A)” value in experiment [6] stood at 5.3%. Also, the “BR (Binding Ratio: log to the base 10 of the ratio of the IC50 of the test compound and the IC50 of cyclosporin A)” value in experiment [5] was determined as 0.4.
As to [MeAla]^6-Ciclosporin, in experiment [6], the “IR (immunosuppressive Ratio, percentage of the activity relative to Cyclosporin A)” value was 3.2%. The “BR (Binding Ratio: log to the base 10 of the ratio of the IC50 of the test compound and the IC50 of cyclosporin A)” value in experiment [5] is listed as −0.4.
Consider [8′-hydroxy-MeBmt]^1-Ciclosporin, for which the “IR (immunosuppressive Ratio, percentage of the activity relative to Cyclosporin A)” value in experiment [6] was determined as 1.8%. In experiment [5], the “BR (Binding Ratio: log to the base 10 of the ratio of the IC50 of the test compound and the IC50 of cyclosporin A)” value was 0.35.
Turning to [γ-hydroxy-MeLeu]^9-Ciclosporin, the “IR (immunosuppressive Ratio, percentage of the activity relative to Cyclosporin A)” value in experiment [6] is reported as 2.9%. Moreover, the “BR (Binding Ratio: log to the base 10 of the ratio of the IC50 of the test compound and the IC50 of cyclosporin A)” value in experiment [5] is listed as 0.15.
Turning to [Ethyl-Ile]^4-Ciclosporin, the “BR (Binding Ratio: log to the base 10 of the ratio of the IC50 of the test compound and the IC50 of cyclosporin A)” value in experiment [5] was 0.1.
